Measured values published in ChEMBL document CHEMBL1201862, “PubChem BioAssay data set” (2004).
The source made the active and inactive calls.

Key:
Aspartyl aminopeptidase = molecular target: T1, Aspartyl aminopeptidase (Plasmodium falciparum 3D7, UniProt Q8I2J3)
T1 sequence (Q8I2J3 whole entry): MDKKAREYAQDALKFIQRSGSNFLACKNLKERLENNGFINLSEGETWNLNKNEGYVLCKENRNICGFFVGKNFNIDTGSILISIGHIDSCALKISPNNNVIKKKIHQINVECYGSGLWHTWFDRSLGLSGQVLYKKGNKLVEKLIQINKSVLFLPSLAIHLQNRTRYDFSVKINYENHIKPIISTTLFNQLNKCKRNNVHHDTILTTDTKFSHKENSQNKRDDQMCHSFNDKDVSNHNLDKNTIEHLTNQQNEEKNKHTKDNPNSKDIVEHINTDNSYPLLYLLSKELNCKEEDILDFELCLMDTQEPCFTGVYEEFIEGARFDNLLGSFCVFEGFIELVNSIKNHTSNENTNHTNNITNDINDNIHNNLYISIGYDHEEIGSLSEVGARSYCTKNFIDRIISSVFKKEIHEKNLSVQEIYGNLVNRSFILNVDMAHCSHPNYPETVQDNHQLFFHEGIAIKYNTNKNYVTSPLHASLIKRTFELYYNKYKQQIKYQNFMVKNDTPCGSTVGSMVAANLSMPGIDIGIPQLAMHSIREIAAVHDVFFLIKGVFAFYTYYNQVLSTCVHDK

H9c2 = experiment: cells; format: functional, cell-based; conditions: Rattus norvegicus, H9c2, Myocardium;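 further: confirmatory concentration-response retest of ultra-high-throughput screening hits for modulation of myocardial damage; cell death induced by hydrogen peroxide oxidative stress; compound pretreatment for 60 min then peroxide exposure for 2 h; potency is for protecting the cells against peroxide damage rather than for killing them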
Procathepsin L = Procathepsin L (Homo sapiens, UniProt P07711)
[1] = molecular target: Peroxisome proliferator-activated receptor gamma/Nuclear receptor corepressor 2 (Homo sapiens, UniProt P37231+Q9Y618); format: functional
Streptococcus = experiment: GAS UMAA2166 growth inhibition – luminescence, BacTiterGlo, counter-screen for streptokinase expression inhibitor project, dose response (AID 1915); format: functional, organism-based;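 further: potency for reduction of bacterial viability or growth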
[2] = tested on: Streptococcus sp. 'group A'; experiment: Streptococcus pyogenes SK(-)GAS viability under kanamycin – luminescence, BacTiterGlo, confirmation, counter-screen for streptokinase expression inhibitor project, dose response (AID 1900); format: functional, organism-based
[3] = molecular target: Photoreceptor-specific nuclear receptor (Homo sapiens, UniProt Q9Y5X4); format: functional;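 further: potency for compounds that break the NR2E3 corepressor complex and count as activators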
[4] = molecular target: NAD-dependent protein deacylase sirtuin-5, mitochondrial (Homo sapiens, UniProt Q9NXA8); experiment: sirtuin-5 deacylation blockers, concentration series – biochemical, fluorescence imaging, cherry-pick, set 5, dose response (AID 720591);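 further: desuccinylation of succinyl peptide AMC substrate read as fluorescence after trypsin release; potency of inhibitors that lower fluorescence and may act on trypsin instead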
Ion channel NompC [5] = molecular target: T2, Ion channel NompC (Danio rerio, UniProt Q7T1G6); experiment: Fluorescence counterscreen assay for TRPML3 agonists: dose response cell-based high-throughput screening assay to identify agonists of the transient receptor potential channel N1 (TRPN1). [Related pubchem assays: 1526, 1424, 1448 ]; format: functional
Mucolipin-3 = molecular target: T3, Mucolipin-3 (Homo sapiens, UniProt Q8TDD5); experiment: Dose response cell-based high-throughput screening assay for agonists of the transient receptor potential channel ML3 (TRPML3). [Related pubchem assays: 1526, 1424, 1448 ]; format: functional
T3 sequence (Q8TDD5 whole entry): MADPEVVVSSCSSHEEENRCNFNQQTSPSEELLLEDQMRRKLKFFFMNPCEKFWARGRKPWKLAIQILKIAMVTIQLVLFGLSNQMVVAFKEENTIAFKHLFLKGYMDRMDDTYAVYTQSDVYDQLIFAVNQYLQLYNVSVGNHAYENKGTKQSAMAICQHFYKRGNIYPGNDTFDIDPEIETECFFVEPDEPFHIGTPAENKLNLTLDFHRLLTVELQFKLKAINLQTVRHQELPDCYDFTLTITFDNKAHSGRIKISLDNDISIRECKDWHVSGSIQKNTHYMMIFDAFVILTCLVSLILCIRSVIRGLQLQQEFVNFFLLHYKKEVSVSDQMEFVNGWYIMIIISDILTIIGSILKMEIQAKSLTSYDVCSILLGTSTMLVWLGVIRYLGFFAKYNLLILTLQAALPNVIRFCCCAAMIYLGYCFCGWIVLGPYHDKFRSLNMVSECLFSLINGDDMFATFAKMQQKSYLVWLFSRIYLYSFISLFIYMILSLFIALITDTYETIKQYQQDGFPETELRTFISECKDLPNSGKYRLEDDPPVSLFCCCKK

Ion channel NompC [6] = molecular target: T2, Ion channel NompC; experiment: activators of mucolipin-3 and mucolipin-2 – cell-based, […], Fura-2 profiling panel, panel member TRPN1 Dose Response (AID 2116)
Cytochrome P450 2C9 = Cytochrome P450 2C9 (Homo sapiens, UniProt P11712); conditions: Potency
Chain of Cytochrome P450 2C9 (P11712 whole entry): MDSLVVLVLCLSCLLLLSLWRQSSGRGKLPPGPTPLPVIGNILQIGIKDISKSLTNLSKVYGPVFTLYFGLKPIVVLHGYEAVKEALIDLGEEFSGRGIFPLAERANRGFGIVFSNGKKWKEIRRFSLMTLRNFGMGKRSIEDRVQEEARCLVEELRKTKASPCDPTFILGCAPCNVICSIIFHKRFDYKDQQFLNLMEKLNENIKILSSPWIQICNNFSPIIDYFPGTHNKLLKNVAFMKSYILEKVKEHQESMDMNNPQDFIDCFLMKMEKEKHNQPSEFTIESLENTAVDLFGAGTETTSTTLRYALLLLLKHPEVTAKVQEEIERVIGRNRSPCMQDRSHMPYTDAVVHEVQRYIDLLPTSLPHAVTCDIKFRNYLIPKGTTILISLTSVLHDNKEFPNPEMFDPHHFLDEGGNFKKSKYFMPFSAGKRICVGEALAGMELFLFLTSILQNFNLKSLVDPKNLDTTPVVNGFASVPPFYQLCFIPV

T2 sequence (Q7T1G6 whole entry): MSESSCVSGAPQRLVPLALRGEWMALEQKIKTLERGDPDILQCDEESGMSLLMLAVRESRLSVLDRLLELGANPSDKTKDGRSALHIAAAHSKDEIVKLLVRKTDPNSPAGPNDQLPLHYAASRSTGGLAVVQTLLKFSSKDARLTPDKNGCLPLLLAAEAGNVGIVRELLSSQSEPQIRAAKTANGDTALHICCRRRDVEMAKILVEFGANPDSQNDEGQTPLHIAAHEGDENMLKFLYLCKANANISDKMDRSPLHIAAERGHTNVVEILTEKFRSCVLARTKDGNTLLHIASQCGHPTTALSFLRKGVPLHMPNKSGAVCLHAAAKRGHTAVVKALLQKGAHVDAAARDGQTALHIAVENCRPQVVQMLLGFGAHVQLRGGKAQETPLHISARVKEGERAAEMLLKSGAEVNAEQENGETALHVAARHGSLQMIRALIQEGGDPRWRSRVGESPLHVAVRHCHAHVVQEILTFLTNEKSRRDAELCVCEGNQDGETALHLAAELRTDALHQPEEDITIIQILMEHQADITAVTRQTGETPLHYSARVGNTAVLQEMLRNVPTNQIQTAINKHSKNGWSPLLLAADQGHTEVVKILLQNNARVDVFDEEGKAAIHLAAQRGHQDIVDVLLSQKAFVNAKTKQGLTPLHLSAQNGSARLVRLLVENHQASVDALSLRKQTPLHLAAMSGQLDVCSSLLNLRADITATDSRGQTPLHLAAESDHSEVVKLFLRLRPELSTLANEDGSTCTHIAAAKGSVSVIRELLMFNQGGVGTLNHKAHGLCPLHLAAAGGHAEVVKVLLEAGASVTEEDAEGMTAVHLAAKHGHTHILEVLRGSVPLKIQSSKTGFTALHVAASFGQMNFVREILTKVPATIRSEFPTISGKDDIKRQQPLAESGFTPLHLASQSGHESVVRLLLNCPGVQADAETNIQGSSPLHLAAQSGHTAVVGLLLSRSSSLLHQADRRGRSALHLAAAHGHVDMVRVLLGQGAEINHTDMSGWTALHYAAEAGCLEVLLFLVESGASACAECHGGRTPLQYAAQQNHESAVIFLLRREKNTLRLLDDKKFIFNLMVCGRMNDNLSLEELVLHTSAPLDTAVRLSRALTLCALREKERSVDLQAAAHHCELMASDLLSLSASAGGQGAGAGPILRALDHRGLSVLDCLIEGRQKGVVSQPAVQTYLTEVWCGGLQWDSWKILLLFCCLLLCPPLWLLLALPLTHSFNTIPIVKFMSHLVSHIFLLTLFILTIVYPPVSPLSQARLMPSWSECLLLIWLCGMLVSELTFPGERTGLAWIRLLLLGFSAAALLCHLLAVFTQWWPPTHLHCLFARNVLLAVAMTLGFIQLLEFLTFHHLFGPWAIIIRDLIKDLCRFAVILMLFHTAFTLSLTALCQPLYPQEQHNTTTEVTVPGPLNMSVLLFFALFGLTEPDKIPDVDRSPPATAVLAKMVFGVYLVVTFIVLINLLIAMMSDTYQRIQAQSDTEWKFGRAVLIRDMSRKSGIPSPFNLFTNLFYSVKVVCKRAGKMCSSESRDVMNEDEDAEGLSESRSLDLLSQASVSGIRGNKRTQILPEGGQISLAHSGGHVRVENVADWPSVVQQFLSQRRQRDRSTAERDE
Chain of Photoreceptor-specific nuclear receptor (Q9Y5X4 whole entry): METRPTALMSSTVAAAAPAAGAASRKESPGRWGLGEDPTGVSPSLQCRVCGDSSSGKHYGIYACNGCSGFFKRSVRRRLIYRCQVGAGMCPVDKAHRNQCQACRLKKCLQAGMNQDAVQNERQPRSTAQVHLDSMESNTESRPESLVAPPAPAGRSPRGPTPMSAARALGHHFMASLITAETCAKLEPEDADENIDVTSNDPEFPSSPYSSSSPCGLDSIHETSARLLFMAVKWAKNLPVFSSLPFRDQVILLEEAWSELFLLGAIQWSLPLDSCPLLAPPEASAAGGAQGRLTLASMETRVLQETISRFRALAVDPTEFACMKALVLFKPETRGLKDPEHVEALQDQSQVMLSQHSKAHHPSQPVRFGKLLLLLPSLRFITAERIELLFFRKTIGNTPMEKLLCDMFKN
Chain of NAD-dependent protein deacylase sirtuin-5, mitochondrial (Q9NXA8 whole entry): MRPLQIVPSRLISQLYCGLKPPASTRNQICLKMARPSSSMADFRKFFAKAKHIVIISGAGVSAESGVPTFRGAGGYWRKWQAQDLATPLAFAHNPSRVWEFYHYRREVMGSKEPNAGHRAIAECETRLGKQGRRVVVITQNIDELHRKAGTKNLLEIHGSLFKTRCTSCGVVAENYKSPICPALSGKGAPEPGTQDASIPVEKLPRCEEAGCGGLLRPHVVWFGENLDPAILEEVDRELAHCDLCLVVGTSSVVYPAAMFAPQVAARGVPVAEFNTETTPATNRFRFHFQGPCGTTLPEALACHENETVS
Chain of Procathepsin L (P07711 whole entry): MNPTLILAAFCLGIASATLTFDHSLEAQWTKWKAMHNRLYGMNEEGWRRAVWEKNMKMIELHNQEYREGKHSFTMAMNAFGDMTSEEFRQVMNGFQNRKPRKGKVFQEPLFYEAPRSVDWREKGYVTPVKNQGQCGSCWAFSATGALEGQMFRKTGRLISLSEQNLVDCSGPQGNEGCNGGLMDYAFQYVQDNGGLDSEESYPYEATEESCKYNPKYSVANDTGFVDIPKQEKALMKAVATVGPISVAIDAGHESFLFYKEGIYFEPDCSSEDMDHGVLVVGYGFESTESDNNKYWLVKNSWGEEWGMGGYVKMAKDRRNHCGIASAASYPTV

CCOC(=O)Cc1csc(NC(=O)NC2(C(F)(F)F)Oc3ccccc3O2)n1
IC50 (Aspartyl aminopeptidase): 3.02 µM (active)
IC50 (H9c2): 17.5 µM (active)
IC50 (Procathepsin L): > 59.6 µM (not active)

Cc1cc(N2C(=O)C(O)=C(C(=O)c3cc4ccccc4o3)C2c2ccc(Br)cc2)no1 (configuration not stated)
IC50 [1]: 2.92 µM (active)
EC50 (Streptococcus): 2.78 µM (active)
EC50 [2]: 2.01 µM (active)
IC50 [3]: > 39.8 µM (not active)
AC50 [4]: 17.5 µM (active)

O=S(=O)(Nc1ccccc1N1CCOCC1)c1ccc(Cl)s1
EC50 (Ion channel NompC [5]): > 29.9 µM (not active)
EC50 (Mucolipin-3): 1.36 µM (active)
EC50 (Ion channel NompC [6]): > 29.9 µM (inactive)

CC(C)C[C@@H](CC(=O)N[C@H](CC(=O)N[C@@H]1CCCC[C@H]1C(=O)N[C@H](CC(=O)N[C@@H](CCC(=O)O)CC(=O)O)CC(C)C)C(C)C)NC(=O)[C@@H]1CCCC[C@H]1N
AC50 (Cytochrome P450 2C9): 39.8 µM (inconclusive)
